Here are results for 19 compounds from PubChem BioAssay AID2749 (The Scripps Research Institute Molecular Screening Center, 2010).

Active and inactive are the calls of the source. The rule behind the calls is not given here. Where only a bound is given, the exact number is not on record here.

The assay relates to IEC-6 rat intestinal epithelial cells, cytotoxicity, luminescence. The experiment in a line: rat intestinal epithelial cell viability loss – luminescence, dose response, cytotoxicity control for KLF5 inhibitor project, late-stage follow-up (AID 2749).
On to `CC(C)(C)c1ccc(C(=O)O/N=C(\N)c2ccccn2)cc1`, for which the IC50 (in general, the concentration that inhibits the measured activity by half) was 25.5 µM (inactive).
Consider `COc1ccc(C(=O)Nc2ccccc2C(=O)NN=Cc2ccc(O)c(OC)c2)cc1`, for which the IC50 is > 39.8 µM (inactive).
For the compound `CCOC(=O)c1sc(NC(=O)c2ccc3ncsc3c2)nc1C`, the IC50 is > 39.8 µM (inactive).
Then `CC(C)(C)C(=O)Nc1cc2nn(-c3ccccc3)nc2cc1Cl`, with > 39.8 µM (inactive); and `O=C(NCCc1ccccc1)c1ccc2c(c1)OCCCO2`, with > 39.8 µM (inactive); and `CC(C)(C)c1ccc(-c2noc(CCC(=O)Nc3cccnc3)n2)cc1`, with > 39.8 µM (inactive).
Then `COc1cccc(C=NNc2ccc(C(=O)O)cc2)c1O`, with > 39.8 µM (inactive).
With `O=C(NCCc1ccccc1F)c1ccc2c(c1)OCCO2`, the IC50 was > 39.8 µM (inactive).
Then `CCOC(=O)c1sc(NC(=O)c2cc3c(s2)CCC(C)C3)nc1C` (centres undefined), with > 39.8 µM (inactive).
Next, `CCOC(=O)c1sc(NC(=O)c2cc3ccccc3o2)nc1C`: > 39.8 µM (inactive); `Cc1ccc2nc(NC(=O)CCCc3nc4ccccc4s3)sc2c1`: > 39.8 µM (inactive).
As to `c1ccc(-c2ccc(-c3nc(-c4ccccn4)no3)cc2)cc1`, the IC50 is 14.2 µM (inactive).
With `COc1ccc(OCc2cccc(C(=O)Nn3cc([N+](=O)[O-])cn3)c2)cc1`, the IC50 is > 39.8 µM (inactive).
Then `CCCc1ccc(C(=O)O/N=C(\N)c2ccccn2)cc1`, with > 39.8 µM (inactive).
In the case of `Cc1cc(C(=O)CN2C(=O)c3ccccc3S2(=O)=O)c(C)n1CC1CCCO1` (centres undefined), the IC50 is > 39.8 µM (inactive).
Then `CCCc1ccc(-c2ccc(/C=C/C(=O)O)cc2)nc1`, with > 39.8 µM (inactive).
With `COC(=O)c1ccc2nc(Nc3nc4ccc(F)cc4s3)sc2c1`, the IC50 is > 39.8 µM (inactive).
For `CN(C(=O)COC(=O)/C=C/c1cccc([N+](=O)[O-])c1)C1CCS(=O)(=O)C1` (centres undefined), the IC50 was 34.8 µM (inactive).
In the case of `CN1CCN(c2ccc(-c3ccc4ccccc4n3)cc2)CC1`, the IC50 was 16.2 µM (inactive).
